Publication PMC7854729 (Nature Communications, 2021)
“And” between values parts separate entries of the source, which are not always exact repeats. Equal entries are not always repeated. Where two headings read alike, the source gives them in different places. Where a SMILES comes first, the peptide text is derived from it.

Key:
[1] = biological target: SARS-CoV-2 PLpro (Severe acute respiratory syndrome coronavirus 2, UniProt P0DTD1); assay: biochemical
[2] = system: SARS-CoV-2; assay: microbe, parasite or virus in culture; assay type: cell-based, SARS-CoV-2 (nCoV/Washington/1/2020) in Vero E6 cells; details: for inhibition of virus replication: Vero E6, SARS-CoV-2; for Percent Spike Positive Cells: relative to DMSO treated cells, single replicates
[3] = biological target: T1, PLpro-WT (Severe acute respiratory syndrome coronavirus 2, UniProt P0DTD1); assay type: biochemical
T1 construct: PLpro is a domain of Nsp3—a large multidomain protein; made in house; host or cells: E. coli BL21(DE3)-Gold

Cc1ccc(NC(=O)NC(N)=O)cc1C(=O)N[C@H](C)c1cccc2ccccc12 [Compound 2, 5-carbamylurea-2-methyl-N-[(1R)-1-naphthalen-1-ylethyl]benzamide]
PLpro assay signal (source data Figure 2, single replicates) ([1]; Log(M) -3.69897, listed as 2 (Snyder495)): 60 and 59 and 86
PLpro assay signal (source data Figure 2, single replicates) ([1]; Log(M) -4, listed as 2 (Snyder495)): 70 and 66 and 64
PLpro assay signal (source data Figure 2, single replicates) ([1]; Log(M) -4.39794, listed as 2 (Snyder495)): 92 and 85 and 99
PLpro assay signal (source data Figure 2, single replicates) ([1]; Log(M) -4.69897, listed as 2 (Snyder495)): 136 and 126 and 144
PLpro assay signal (source data Figure 2, single replicates) ([1]; Log(M) -5.09691, listed as 2 (Snyder495)): 203 and 179 and 181
PLpro assay signal (source data Figure 2, single replicates) ([1]; Log(M) -5.39794, listed as 2 (Snyder495)): 314 and 305 and 289
PLpro assay signal (source data Figure 2, single replicates) ([1]; Log(M) -5.79588, listed as 2 (Snyder495)): 365 and 343 and 315
PLpro assay signal (source data Figure 2, single replicates) ([1]; Log(M) -6.09691, listed as 2 (Snyder495)): 476 and 447 and 368
PLpro assay signal (source data Figure 2, single replicates) ([1]; Log(M) -6.49485, listed as 2 (Snyder495)): 414 and 419 and 416
PLpro assay signal (source data Figure 2, single replicates) ([1]; Log(M) -6.79588, listed as 2 (Snyder495)): 421 and 453 and 465
IC50 ([1]; pH 7.3, read-out: IC50): 5.1 µM
inhibition of virus replication [2]: failed

C=CC(=O)Nc1ccc(C)c(C(=O)N[C@H](C)c2cccc3ccccc23)c1 [Compound 3, 5-acrylamide-2-methyl-N-[(1R)-1-naphthalen-1-ylethyl]benzamide]
PLpro assay signal (source data Figure 2, single replicates) ([1]; Log(M) -3.69897, listed as 3 (Snyder530)): 91 and 88 and 87
PLpro assay signal (source data Figure 2, single replicates) ([1]; Log(M) -4, listed as 3 (Snyder530)): 107 (2×) and 106
PLpro assay signal (source data Figure 2, single replicates) ([1]; Log(M) -4.39794, listed as 3 (Snyder530)): 175 (2×) and 163
PLpro assay signal (source data Figure 2, single replicates) ([1]; Log(M) -4.69897, listed as 3 (Snyder530)): 282 and 274 and 281
PLpro assay signal (source data Figure 2, single replicates) ([1]; Log(M) -5.09691, listed as 3 (Snyder530)): 401 and 387 and 371
PLpro assay signal (source data Figure 2, single replicates) ([1]; Log(M) -5.39794, listed as 3 (Snyder530)): 551 and 511 and 480
PLpro assay signal (source data Figure 2, single replicates) ([1]; Log(M) -5.79588, listed as 3 (Snyder530)): 638 and 706 and 719
PLpro assay signal (source data Figure 2, single replicates) ([1]; Log(M) -6.09691, listed as 3 (Snyder530)): 726 and 781 and 797
PLpro assay signal (source data Figure 2, single replicates) ([1]; Log(M) -6.49485, listed as 3 (Snyder530)): 808 and 740 and 787
PLpro assay signal (source data Figure 2, single replicates) ([1]; Log(M) -6.79588, listed as 3 (Snyder530)): 765 and 796 and 803
IC50 ([1]; pH 7.3, read-out: IC50): 6.4 µM
inhibition of virus replication [2]: failed

Nc1cc(C(=O)Nc2cccc3ccccc23)cc(C(F)(F)F)c1 [Compound 4]
IC50 ([1]; IC50): 43.2 ± 9.4 µM
PLpro assay signal (source data Figure 2, single replicates) ([1]; Log(M) -0.30103, listed as 4 (Snyder550)): 498 and 310 and 468
PLpro assay signal (source data Figure 2, single replicates) ([1]; Log(M) -0.60206, listed as 4 (Snyder550)): 426 and 463 and 490
PLpro assay signal (source data Figure 2, single replicates) ([1]; Log(M) -1, listed as 4 (Snyder550)): 617 and 632 and 562
PLpro assay signal (source data Figure 2, single replicates) ([1]; Log(M) -1.30103, listed as 4 (Snyder550)): 679 and 720 and 747
PLpro assay signal (source data Figure 2, single replicates) ([1]; Log(M) -1.69897, listed as 4 (Snyder550)): 956 and 920 and 944
PLpro assay signal (source data Figure 2, single replicates) ([1]; Log(M) -2, listed as 4 (Snyder550)): 1073 and 1048 and 930
PLpro assay signal (source data Figure 2, single replicates) ([1]; Log(M) -2.39794, listed as 4 (Snyder550)): 1192 and 1138 and 1087
PLpro assay signal (source data Figure 2, single replicates) ([1]; Log(M) -2.69897, listed as 4 (Snyder550)): 1318 and 1220 and 924
PLpro assay signal (source data Figure 2, single replicates) ([1]; Log(M) -3.09691, listed as 4 (Snyder550)): 1177 and 1051 and 1092
PLpro assay signal (source data Figure 2, single replicates) ([1]; Log(M) -3.39794, listed as 4 (Snyder550)): 1045 and 1012 and 1221
EC50 ([2]; Severe acute respiratory syndrome coronavirus 2, Vero C1008, 24 h, read-out: EC50): 1.7 ± 4.4 µM
inhibition of virus replication [2]: inhibiting virus replication
Percent Spike Positive Cells ([2]; [Drug] 0.1 uM): 75% and 100% and 88%
Percent Spike Positive Cells ([2]; [Drug] 1 uM): 88% and 81% and 63%
Percent Spike Positive Cells ([2]; [Drug] 10 uM): 0%

CC(=O)N[C@@H](CC(C)C)C(=O)N[C@@H](CCCCN)C(=O)NCC(=O)NCC(=O)Nc1ccc2c(C)cc(=O)oc2c1 [probe] (HELM PEPTIDE1{[ac].L.K.G.G.[Cc1cc(=O)oc2cc(N[*:1])ccc12]}$$$$V2.0)
fluorescence ([3]; 0.1 M PLP, time point 8): 103 and 110 and 118
fluorescence normalised to probe only ([3]; 0.1 M PLP, time point 8): 2.146 and 2.292 and 2.458
fluorescence ([3]; 0.1 M PLP, time point 9): 107 and 115 and 122
fluorescence normalised to probe only ([3]; 0.1 M PLP, time point 9): 2.229 and 2.396 and 2.542
fluorescence ([3]; 0.1 M PLP, time point 10): 111 and 120 and 127
fluorescence normalised to probe only ([3]; 0.1 M PLP, time point 10): 2.3125 and 2.5 and 2.646
fluorescence ([3]; 0.1 M PLP, time point 11): 115 and 124 and 132
fluorescence normalised to probe only ([3]; 0.1 M PLP, time point 11): 2.396 and 2.583 and 2.75
fluorescence ([3]; 0.1 M PLP, time point 12): 115 and 129 and 133
fluorescence normalised to probe only ([3]; 0.1 M PLP, time point 12): 2.396 and 2.6875 and 2.771
fluorescence ([3]; 0.1 M PLP, time point 13): 120 and 131 and 139
fluorescence normalised to probe only ([3]; 0.1 M PLP, time point 13): 2.5 and 2.729 and 2.896
fluorescence ([3]; 0.1 M PLP, time point 14): 123
fluorescence normalised to probe only ([3]; 0.1 M PLP, time point 14): 2.5625 and 2.833 and 2.979
fluorescence ([3]; 0.2 M PLP, time point 8): 260 and 288 and 278
fluorescence normalised to probe only ([3]; 0.2 M PLP, time point 8): 5.417 and 6 and 5.792
fluorescence ([3]; 0.2 M PLP, time point 9): 295 and 313 and 300
fluorescence normalised to probe only ([3]; 0.2 M PLP, time point 9): 6.146 and 6.521 and 6.25
fluorescence ([3]; 0.2 M PLP, time point 10): 321 and 335 and 319
fluorescence normalised to probe only ([3]; 0.2 M PLP, time point 10): 6.6875 and 6.979 and 6.646
fluorescence ([3]; 0.2 M PLP, time point 11): 337 and 357 and 345
fluorescence normalised to probe only ([3]; 0.2 M PLP, time point 11): 7.021 and 7.4375 and 7.1875
fluorescence ([3]; 0.2 M PLP, time point 12): 357 and 377 and 368
fluorescence normalised to probe only ([3]; 0.2 M PLP, time point 12): 7.4375 and 7.854 and 7.667
fluorescence ([3]; 0.2 M PLP, time point 13): 379 and 400 and 381
fluorescence normalised to probe only ([3]; 0.2 M PLP, time point 13): 7.896 and 8.333 and 7.9375
fluorescence normalised to probe only ([3]; 0.2 M PLP, time point 14): 8.167 and 8.792 and 8.417
fluorescence ([3]; 0.3 M PLP, time point 8): 443 and 452 and 474
fluorescence normalised to probe only ([3]; 0.3 M PLP, time point 8): 9.229 and 9.417 and 9.875
fluorescence ([3]; 0.3 M PLP, time point 9): 481 and 493 and 520
fluorescence normalised to probe only ([3]; 0.3 M PLP, time point 9): 10.0208 and 10.2708 and 10.8333
fluorescence ([3]; 0.3 M PLP, time point 10): 519 and 530 and 558
fluorescence normalised to probe only ([3]; 0.3 M PLP, time point 10): 10.8125 and 11.0417 and 11.625
fluorescence ([3]; 0.3 M PLP, time point 11): 560 and 573 and 600
fluorescence normalised to probe only ([3]; 0.3 M PLP, time point 11): 11.6667 and 11.9375 and 12.5
fluorescence ([3]; 0.3 M PLP, time point 12): 594 and 609 and 643
fluorescence normalised to probe only ([3]; 0.3 M PLP, time point 12): 12.375 and 12.6875 and 13.3958
fluorescence ([3]; 0.3 M PLP, time point 13): 632 and 646 and 681
fluorescence normalised to probe only ([3]; 0.3 M PLP, time point 13): 13.1667 and 13.4583 and 14.1875
fluorescence ([3]; 0.3 M PLP, time point 14): 671 and 682 and 717
fluorescence normalised to probe only ([3]; 0.3 M PLP, time point 14): 13.9792 and 14.2083 and 14.9375
fluorescence ([3]; 0.5 M PLP, time point 8): 891 and 894 and 883
fluorescence normalised to probe only ([3]; 0.5 M PLP, time point 8): 18.5625 and 18.625 and 18.3958
fluorescence ([3]; 0.5 M PLP, time point 9): 972 and 978 and 964
fluorescence normalised to probe only ([3]; 0.5 M PLP, time point 9): 20.25 and 20.375 and 20.0833
fluorescence ([3]; 0.5 M PLP, time point 10): 1053 and 1058 and 1040
fluorescence normalised to probe only ([3]; 0.5 M PLP, time point 10): 21.9375 and 22.0417 and 21.6667
fluorescence ([3]; 0.5 M PLP, time point 11): 1137 and 1139 and 1118
fluorescence normalised to probe only ([3]; 0.5 M PLP, time point 11): 23.6875 and 23.7292 and 23.2917
fluorescence ([3]; 0.5 M PLP, time point 12): 1204 and 1214 and 1189
fluorescence normalised to probe only ([3]; 0.5 M PLP, time point 12): 25.0833 and 25.2917 and 24.7708
fluorescence ([3]; 0.5 M PLP, time point 13): 1275 and 1287 and 1260
fluorescence normalised to probe only ([3]; 0.5 M PLP, time point 13): 26.5625 and 26.8125 and 26.25
fluorescence ([3]; 0.5 M PLP, time point 14): 1338 and 1358 and 1327
fluorescence normalised to probe only ([3]; 0.5 M PLP, time point 14): 27.875
fluorescence ([3]; 1.0 M PLP, time point 8): 1812 and 1755 and 1796
fluorescence normalised to probe only ([3]; 1.0 M PLP, time point 8): 37.75 and 36.5625 and 37.4167
fluorescence ([3]; 1.0 M PLP, time point 9): 1958 and 1902 and 1937
fluorescence normalised to probe only ([3]; 1.0 M PLP, time point 9): 40.7917 and 39.625 and 40.3542
fluorescence ([3]; 1.0 M PLP, time point 10): 2101 and 2025 and 2064
fluorescence normalised to probe only ([3]; 1.0 M PLP, time point 10): 43.7708 and 42.1875 and 43
fluorescence ([3]; 1.0 M PLP, time point 11): 2228 and 2143 and 2197
fluorescence normalised to probe only ([3]; 1.0 M PLP, time point 11): 46.4167 and 44.6458 and 45.7708
fluorescence ([3]; 1.0 M PLP, time point 12): 2329 and 2259 and 2313
fluorescence normalised to probe only ([3]; 1.0 M PLP, time point 12): 48.5208 and 47.0625 and 48.1875
fluorescence ([3]; 1.0 M PLP, time point 13): 2450 and 2363 and 2423
fluorescence normalised to probe only ([3]; 1.0 M PLP, time point 13): 51.0417 and 49.2292 and 50.4792
fluorescence ([3]; 1.0 M PLP, time point 14): 2548 and 2459 and 2512
